Entries after “also recorded” stand apart in the source; their conditions may differ. Structures can show the parent of a compound that is named as a salt.
Legend:
S. hyodysenteriae = conditions: cited from earlier work
[1] = Acute toxicity in the rat; format: in vivo
Experimental: The acute toxicity in the rat of the compound of formula I in hydrochloride salt form was determined with single doses of 1000 mg/kg and 2000 mg/kg orally administered to 5 male and 5 female rats per dose group. Deaths occurred within 1-8 days. The LD50 -value obtained is >1000 mg/kg p.o.

M. hyopneumoniae = assay: Development of resistance (habituation study), MIC before and after passages; format: cell-based, Mycoplasma hyopneumoniae; conditions: for Resistance increase: up to P10/P11
Experimental: Mycoplasma hyopneumoniae reference strain NCTC 10110 (obtained from the National Collection of Type Cultures, London, UK) and a recent field isolate (MEVT G23), are grown aerobically at 36° C. in Mycoplasma glucose broth containing phenol red until an acid colour change occurs. After addition of sterile glycerol (5% v/v) the cultures are dispensed in 1 ml aliquots and frozen at -70° C. These cultures are used to initiate further broth cultures which are titrated to obtain the number of colour changing units (ccu) in microtitre plates after incubation (36° C.). Replication allows challenge of antibiotic dilutions with predetermined numbers of ccu in minimal inhibitory concentration (MIC) tests and in the primary passage in habituation studies.
A commercially available medium (Mycopiasma Experience Ltd.) containing glucose and phenol red (MEGB) is used at pH 7.6.
Stock test compound solutions are prepared at 1000 μg/ml in deionized water. After vortexing, the solutions are sterilized by filtration through 0.2μ pore size membrane filters (Sartorius Minisart, N). For use in the MIC tests the stock solutions are diluted in mycoplasma broth to double the final concentrations required. In habituation studies the stock solutions are dispensed in 1 ml aliquots and frozen at -20° C. These are thawed and used at 5 day-7 day intervals to prepare ranges of concentrations of drug (doubling series) in MEGB, in 1.9 ml aliquots, covering the MICs against both strains of M. hyopneumoniae. Oxytetracycline hydrochloride is prepared fresh on each occasion. The dilution ranges are gradually changed from passage to passage to allow for the development of resistance in the mycoplasmas.
MIC tests are carried out by the method of Tanner & Wu, Avian Diseases 36 (1992) 714-717 before carrying out the habituation study (below) and after the 10th passages 0.1 ml aliquots of the compound dilution are mixed with 0.1 ml aliquots of the challenge inocula, containing between 10^3 and 10^5 colour changing units (ccu) per ml, in microtitre wells. Each microtitre plate contains uninoculated medium, medium at pH 6.8 (end-point-control) and drug-free inoculated challenge controls. All plates are sealed and incubated aerobically at 36° C. MICs are recorded when the colour change in the challenge control wells match the pH 6.8 control (orange-yellow). The MIC is the lowest concentration to show no colour change.
Habituation study: In the primary passage experiment, 1.9 ml volumes of antibiotic solutions at concentrations covering the MIC of the M. hyopneumoniae strain under test, are inoculated with 0.1 ml of broth culture containing between 10^3 ccu/ml to 10^5 ccu/ml. A growth control consisting of drug-free broth inoculated with M. hyopneumoniae and an uninoculated medium control are included in each passage experiment. After 7 days incubation (36° C.) the two highest concentrations of drug-containing broth showing an acid colour change are pooled and used to inoculate a fresh series of drug dilutions in mycoplasma broth (0.1 ml culture into 1.9 ml drug-containing broth). This process is repeated every 5-7 days for up to 10 passages. When the mycoplasma strains become resistant to particular antibiotics, or at the 10th passage, each strain is grown once more in drug-containing broth and the MICs determined.

Lawsonia intracellularis = assay: Challenge study: porcine proliferative enteropathy; format: in vivo, pigs

| Structure (SMILES) | elimination of S. hyodysenteriae (S. hyodysenteriae; tiamulin 35 and 40 ppm, Taylor 1980) | treatment of swine dysentery (S. hyodysenteriae; tiamulin 100 ppm, less severely affected animals, Taylor 1982) | tolerability ([1]; in vivo) | LD50 ([1]; in vivo, po, single dose) [mg/kg] | time of deaths ([1]; oral 1000 and 2000 mg/kg) [days] | resistance development in words (M. hyopneumoniae; M. hyopneumoniae strains, in vitro passages) | MIC (M. hyopneumoniae; Mesomycoplasma hyopneumoniae, NCTC10110, read-out: Post-passage MIC up to P10/P11) [ng/mL] | Resistance increase (M. hyopneumoniae; NCTC 10110) [fold] | activity greater than those of tylosin and oxytetracycline (M. hyopneumoniae; before exposure, both strains) | Resistance increase (M. hyopneumoniae; field isolate) [fold] | prevention or treatment of disease in words (Lawsonia intracellularis; low actual doses) | pigs with no visible lesions of proliferative enteropathy (Lawsonia intracellularis; prevention group, 25/75 ppm from two days before challenge) | pigs with no visible lesions of proliferative enteropathy (Lawsonia intracellularis; treatment group, 25/75 ppm from seven days after challenge) |
| --- | --- | --- | --- | --- | --- | --- | --- | --- | --- | --- | --- | --- | --- |
| C=C[C@]1(C)C[C@@H](OC(=O)CSCCN(CC)CC)[C@]2(C)[C@H](C)CC[C@]3(CCC(=O)[C@H]32)[C@@H](C)[C@@H]1O [tiamulin hydrogen fumarate] | eliminate S. hyodysenteriae from faeces but not prevent the recovery from mucosal scrapings | successfully used under experimental conditions | – | – | – | – | – | – | – | – | – | – | – |
| C=C[C@]1(C)C[C@@H](OC(=O)CSC(C)(C)CNC(=O)[C@H](N)C(C)C)[C@]2(C)[C@H](C)CC[C@]3(CCC(=O)[C@H]32)[C@@H](C)[C@@H]1O [valnemulin hydrochloride, 14-O-[1-[(R)-2-amino-3-methylbutyrylamino]-2-methylpropan-2-ylthioacetyl]mutilin] | – | – | well tolerated | > 1000 | 1 to 8 | resistance development was minimal; also recorded: does not induce significant resistance to itself | 5 | 2 | 50-100 told | 2.5 | prevented or treated the disease in a large proportion of challenged pigs | 3 of 7 | 5 of 7 |
